From publication PMC5541560, “A biomimetic semisynthesis enables structural elucidation of selaginellin U: a tautomeric cyclic alkynylphenol from Selaginella tamariscina” (Royal Society Open Science, 2017) come the findings set out here.

Broadly, the IC50 is the point on the concentration scale where inhibition reaches its midpoint.

The structures appear in SMILES notation. Bounds are passed on as bounds.

The first assay deals with T1, β-site amyloid precursor protein cleaving enzyme 1 (BACE1) (Homo sapiens, UniProt P56817). The assay is described as follows: FRET peptide substrate assay (Sigma kit CS0010), purified baculovirus-expressed BACE1. In kind it is biochemical.
T1 sequence (P56817 46-457): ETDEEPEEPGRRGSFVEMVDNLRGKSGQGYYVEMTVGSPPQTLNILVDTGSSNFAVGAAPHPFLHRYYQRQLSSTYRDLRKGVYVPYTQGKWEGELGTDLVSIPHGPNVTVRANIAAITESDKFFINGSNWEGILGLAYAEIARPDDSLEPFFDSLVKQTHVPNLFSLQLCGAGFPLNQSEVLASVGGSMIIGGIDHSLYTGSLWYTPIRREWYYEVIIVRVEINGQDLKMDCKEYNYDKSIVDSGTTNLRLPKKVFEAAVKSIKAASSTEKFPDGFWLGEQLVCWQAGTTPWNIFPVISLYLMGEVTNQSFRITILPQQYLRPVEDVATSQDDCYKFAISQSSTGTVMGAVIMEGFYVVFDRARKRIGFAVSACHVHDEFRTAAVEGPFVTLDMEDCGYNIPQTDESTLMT
Molecule `O=C1C=CC(=C(c2ccc(O)cc2)c2c(-c3ccc(O)cc3)ccc(CO)c2C#Cc2ccc(O)cc2)C=C1` [compound 3, selaginellin] came in with an IC50 of 81.2 µM. `Cc1ccc(-c2ccc(O)cc2)c(C(=C2C=CC(=O)C=C2)c2ccc(O)cc2)c1C#Cc1ccc(O)cc1` [compound 13, selaginellin B] yielded an IC50 of 51.1 µM. On to `O=Cc1ccc(-c2ccc(O)cc2)c(C(=C2C=CC(=O)C=C2)c2ccc(O)cc2)c1C#Cc1ccc(O)cc1` [compound 16, selaginellin O], for which the midpoint of inhibition, the IC50, lay at 48.9 µM.

For the next assay, the target named is T1, β-site amyloid precursor protein cleaving enzyme 1 (BACE1). The assay is described as follows: biochemical. Also noted: FRET peptide substrate cleavage assay (Sigma kit CS0010), purified baculovirus-expressed BACE1, inhibition. On the procedure:
Compounds 1–3 and 7–16 were tested for β-site amyloid precursor protein (APP) cleaving enzyme 1 (BACE1) inhibitory activity. BACE1 inhibitory evaluation was performed with a fluorescence resonance energy transfer (FRET) assay kit supplied by Sigma (Kit CS0010, St. Louis, USA). The kit used purified baculovirus-expressed BACE1 and FRET peptide substrates.
Regarding `O=C1OC(c2ccc(O)cc2)(c2ccc(O)cc2)c2c1cccc2-c1ccc(O)cc1` [compound 1, selaginellin T], the half-inhibitory concentration (IC50) was over 100 µM. Molecule `O=C1C=CC(=C(c2ccc(O)cc2)c2c(-c3ccc(O)cc3)ccc3c(=O)oc(-c4ccc(O)cc4)cc23)C=C1` [compound 2, selaginellin U] registered an IC50 of over 100 µM.

`OCc1ccc2c(c1C#Cc1ccc(O)cc1)C(c1ccc(O)cc1)(c1ccc(O)cc1)c1cc(O)ccc1-2` [compound 7, selaginpulvilin A] had a half-inhibitory concentration (IC50) of over 100 µM. Molecule `Cc1ccc(-c2ccc(O)cc2)c(C(=C2C=CC(=O)C=C2)c2ccccc2)c1C#Cc1ccc(O)cc1` [compound 12, selaginellin A] gave an IC50 of over 100 µM. In turn, `COc1ccc(C(=C2C=CC(=O)C=C2)c2c(-c3ccc(O)cc3)ccc(CO)c2C#Cc2ccc(O)cc2)cc1` [compound 15, selaginellin M] gave a 50% inhibitory concentration (IC50) of over 100 µM.
